In patent US20240108684A1, “DOSING REGIMENS FOR TREATMENT OF FUNGAL INFECTIONS” (priority 2016, published 2024):
Read-outs that look alike come from different tables or passages of the source. *1 amine or outer side, *2 acyl side, *3 side chain or, on linkers, in order; H or OH if unused. Where a SMILES comes first, the peptide text is derived from it. Bridges are numbered along the chain shown (N, C = ends). [ ]: non-standard residue; d: D form. The star is where a group is joined. Orn(4R-OH,5R-OCH2CH2NMe3+) = C[N+](C)(C)CCO[C@@H](N[*:3])[C@H](O)C[C@H](N[*:1])C(=O)[*:2]; pTerphenylCO(4''-OnC5H11) = CCCCCOc1ccc(-c2ccc(-c3ccc(C(=O)*)cc3)cc2)cc1; hTyr(3S-OH,4S-OH) = N[C@H](C(=O)O)[C@H](O)[C@@H](O)c1ccc(O)cc1; Pro(3S-OH,4S-Me) = C[C@H]1CN[C@H](C(=O)O)[C@H]1O; Hyp = O=C(O)[C@@H]1C[C@@H](O)CN1

Experiments:
C. glabrata = experiment: MIC by CLSI standards; details: Nakaseomyces glabratus
[1] = tested on: Aspergillus fumigatus (ATCC 13073); experiment: Neutropenic mouse model of aspergillosis, survival; type: in vivo, mice; details: 2 mg/kg IV or IP one dose; 10 days; P<0.05
C. albicans = experiment: Neutropenic murine disseminated candidiasis model, PK/PD; details: for 1 log kill dose / Static Dose: single IP dose
[2] = tested on: azole-resistant C. albicans R357 strain; experiment: MIC and CLSI susceptibility, azole-resistant C. albicans R357; type: cell-based, Candida albicans; details: Candida albicans
C. auris isolates = experiment: Candida auris antifungal susceptibility testing (AFST), CLSI M27-A3; type: cell-based
[3] = Single ascending dose IV study in healthy adult subjects (safety, PK); type: in vivo, human; details: for AUC(0-t): read-out: AUC0-168; for concentration at 144 h: read-out: C144
Method: In a first study, CD101 was administered by IV injection to healthy adult subjects. In this study, subjects in 4 cohorts of 8 subjects (6 active, 2 placebo) each were randomized to receive single IV doses of CD101 or placebo (normal saline) infused over 60 (±5) minutes. Dose levels of CD101 assessed follow an ascending single-dose regimen (50, 100, 200, or 400 mg).
Pharmacokinetics were first determined by analyzing plasma and urine samples for concentration of CD101 obtained from subjects who received CD101 in each cohort at various time points after administration of the single dose of the study drug.

[4] = Plasma protein binding assumed for the simulations; type: in vitro ADME; details: assumed for the Monte Carlo simulations
Method: Monte Carlo simulations were conducted to assess the probability of PK-pharmacodynamic (PD) target attainment using a variety of exploratory dosing regimens. Two dosing regimens were selected for further investigation (Table 5). […] Nonclinical studies of Candida albicans infections in mice have shown that a CD101 fAUC0-168:MIC ratio of 10 has been associated with a 2-log reduction in fungal burden in infected kidneys. This value of 10 was therefore chosen as the PK-PD target of interest for the Monte Carlo simulations.

[5] = Modeling of CD101 total plasma concentrations versus MPC; details: modeling based on in vivo PK data
Source text: Selection of resistance strains in vivo predominantly occurs over a range of drug concentrations falling between the MIC and MPC values. Dosing paradigms that result in plasma drug concentrations in excess of the MPC are therefore more desirable and effective in preventing the development of de novo mutants during the course of therapy (see, e.g., Drlica et al., J. Antimicrob. Chemother. 52:11-17, 2003). Currently approved treatment regimens for caspofungin, micafungin, and anidulafungin involve once-daily dosing at levels such that the Cmax is unlikely to be equivalent to or exceed the MPC at any point during treatment.

Murine protein binding = type: in vitro ADME; details: used to generate free-drug plasma concentrations
[6] = human, plasma, 50 mg 1-hour IV infusion
[7] = human, plasma, 100 mg 1-hour IV infusion
[8] = human, plasma, 200 mg 1-hour IV infusion
[9] = human, plasma, 400 mg 1-hour IV infusion
[10] = single IV 50, 100, 200 or 400 mg

CCCCCOc1ccc(-c2ccc(-c3ccc(C(=O)N[C@H]4C[C@@H](O)[C@@H](OCC[N+](C)(C)C)NC(=O)[C@@H]5[C@@H](O)[C@@H](C)CN5C(=O)[C@H]([C@@H](C)O)NC(=O)[C@H]([C@H](O)[C@@H](O)c5ccc(O)cc5)NC(=O)[C@@H]5C[C@@H](O)CN5C(=O)[C@H]([C@@H](C)O)NC4=O)cc3)cc2)cc1 [CD101] ({pTerphenylCO(4''-OnC5H11)}-[Orn(4R-OH,5R-OCH2CH2NMe3+)]T[Hyp][hTyr(3S-OH,4S-OH)]T[Pro(3S-OH,4S-Me)]; lactam 1-C)
MIC (C. glabrata; C. glabrata 5592): 0.06 µg/mL | MIC (C. glabrata; C. glabrata 10956): 0.5 µg/mL | MIC (C. glabrata; C. glabrata 35315): 0.25 µg/mL | MIC (C. glabrata; read-out: MICs, 3 C. glabrata strains): 0.06 to 0.5 µg/mL | Survival versus vehicle [1]: significantly longer survival than vehicle | 1 log kill Ave 24 h AUC/MIC (C. albicans; C. albicans 98-17): 490 | Stasis Ave 24 h AUC/MIC (C. albicans; C. albicans 98-17): 274 | 1 log kill dose (C. albicans; C. albicans 98-17, 7 days): 2.73 mg/kg | Static Dose (C. albicans; C. albicans 98-17, 7 days): 1.34 mg/kg | 1 log kill Ave 24 h AUC/MIC (C. albicans; C. albicans 98-210): 1574 | Stasis Ave 24 h AUC/MIC (C. albicans; C. albicans 98-210): 868 | 1 log kill dose (C. albicans; C. albicans 98-210, 7 days): 2.28 mg/kg | Static Dose (C. albicans; C. albicans 98-210, 7 days): 1.06 mg/kg | 1 log kill Ave 24 h AUC/MIC (C. albicans; C. albicans 580): 1429 | Stasis Ave 24 h AUC/MIC (C. albicans; C. albicans 580): 948 | 1 log kill dose (C. albicans; C. albicans 580, 7 days): 2.03 mg/kg | Static Dose (C. albicans; C. albicans 580, 7 days): 1.20 mg/kg | 1 log kill Ave 24 h AUC/MIC (C. albicans; C. albicans K-1): 6435 | Stasis Ave 24 h AUC/MIC (C. albicans; C. albicans K-1): 3426 | 1 log kill dose (C. albicans; C. albicans K-1, 7 days): 5.26 mg/kg | Static Dose (C. albicans; C. albicans K-1, 7 days): 2.52 mg/kg | Maximal kill (C. albicans; C. albicans and C. glabrata strains, 0.016-64 mg/kg once IP, 7 days): over 2 log10 CFU/kidney | MIC [2]: 0.125 µg/mL | Activity in comparison (C. auris isolates; 38 C. auris isolates): activity similar to MICA | Breakthrough at 48 h (C. auris isolates; C. auris strains): not with CD101 | Number of resistant C. auris isolates (C. auris isolates; of 38 isolates): 4 | Cmax ([3]; 400 mg 1-hour IV infusion): 22700 ng/mL | Dose proportionality ([3]; 50-400 mg single IV): AUC and Cmax increased in a dose proportional manner | Fraction of dose excreted in urine ([3]; all dose levels): < 1% | half-life ([3]; human, plasma, intravenous, incorporating data from later collection times, read-out: terminal t1/2): 127 to 146 h | half-life ([3]; human, plasma, intravenous, through the first week of plasma collection, read-out: t1/2 (converted)): > 80 h | Vd ([3]; human, plasma, intravenous, 50-400 mg, read-out: Volume of distribution (Vz and Vss)): 33 to 48 L | clearance ([3]; human, plasma, intravenous, across the CD101 doses 50-400 mg, read-out: Total body clearance): ~4 mL/min | Tmax ([3]; human, plasma, intravenous, after start of 1-hour infusion, all doses): ~1 h | half-life ([3]; human, plasma, iv, 50 mg, 50 mg 1-hour IV infusion, read-out: t1/2 (converted)): 86 h | half-life ([3]; human, plasma, iv, 100 mg, 100 mg 1-hour IV infusion, read-out: t1/2 (converted)): 92 h | half-life ([3]; human, plasma, iv, 200 mg, 200 mg 1-hour IV infusion, read-out: t1/2 (converted)): 91 h | half-life ([3]; human, plasma, iv, 400 mg, 400 mg 1-hour IV infusion, read-out: t1/2 (converted)): 84 h | AUC(0-t) [3, 6]: 145 µg·h/mL | concentration at 144 h [3, 6]: 481 ng/mL | Cmax ([3]; human, plasma, 50 mg 1-hour IV infusion, read-out: Cmax): 2760 ng/mL | AUC(0-t) [3, 7]: 254 µg·h/mL | concentration at 144 h [3, 7]: 854 ng/mL | Cmax ([3]; human, plasma, 100 mg 1-hour IV infusion, read-out: Cmax): 4840 ng/mL | AUC(0-t) [3, 8]: 592 µg·h/mL | concentration at 144 h [3, 8]: 2010 ng/mL | Cmax ([3]; human, plasma, 200 mg 1-hour IV infusion, read-out: Cmax): 10900 ng/mL | AUC(0-t) [3, 9]: 1160 µg·h/mL | concentration at 144 h [3, 9]: 3830 ng/mL | Drug-related AEs from laboratory abnormalities [3, 10]: no drug-related AEs resulting from clinically significant hematology or clinical chemistry laboratory abnormalities at any dose | ECG, vital signs, physical exam [3, 10]: no safety issues related to electrocardiograms (ECGs), vital signs, or physical exam findings | Serious and severe adverse events [3, 10]: no serious adverse events (SAEs), severe adverse events (AEs), or dose-response relationships for overall AEs | Severity and resolution of AEs [3, 10]: majority of AEs were mild, and all AEs completely resolved by the end of the study | Safety and tolerability ([3]; single dose up to 400 mg): safe and well tolerated | Plasma protein binding [4]: 99.1% | IV dose sufficient to generate concentrations in excess of 16 μg/ml (MPC) [5]: ≥ 150 mg | Murine protein binding value (Murine protein binding): 99.1%
